Series [1] has as its system pulmonary rat fibroblasts. Description: Fibroblast cell cultures: vitamin K or magnesium sulfate on top of copper sulfate (6c). The series is classed as cell-based. Particulars: added to copper sulfate (+8*initial copper concentration in medium); for accumulation of collagen: compared to copper sulfate monotherapy. From the text: (§1) Cell cultures with pulmonary rat fibroblasts. • 7.
(§2) We first measured copper levels in the fibroblast medium.

Series [2] has as its system porcine pancreatic elastase (PPE)-induced emphysema. Description: Porcine pancreatic elastase (PPE)-induced emphysema model in mice. The procedure:
Methods: In order to assess the effects of copper sulfate plus heparin on both elastin and collagen metabolism in vivo, we used a porcine pancreatic elastase (PPE)-induced emphysema model. Study was conducted in male BALB/c mice aged 7 weeks with a starting body weight of about 25 g. During the study period, all mice were housed in a conventional animal house with a 12/12 h light-dark cycle in filter-top cages and supplied with pelleted food and water ad libitum. 1.5 U porcine pancreatic elastase in 25 μL saline was intratracheally administered on day 1 under light anesthesia. […] On day 35, mice were anesthetized intraperitoneally with a mixture of xylazine (8.5 mg/kg) and ketamine (130 mg/kg), they were tracheotomized and placed in a whole-body plethysmograph to assess lung function. After lung function measurements, mice were euthanized by an intracardiac administration of pentobarbital. The left lung will be snap-frozen in liquid nitrogen and stored at −80° C. for subsequent gene expression studies where ELN, LOX and LOXL1 were measured. The right lung was fixed in 6% paraformaldehyde at a constant hydrostatic pressure of 25 cm fluid column for 24 h. After dehydration and embedding in paraffin, sagittal sections will be stained with various stains and used for histological analyses to measure airspace enlargement (mean linear intercept); and subsequently this lung was used for measuring concentrations of both DES and insoluble collagen. Brains were taken out to measure copper concentrations.

The subject of series [3] is pulmonary rat fibroblasts.
From the text: as §1, §2

A further series relates to copper-deficient chicks. Conditions: copper repletion in copper-deficient chicks, ref. [7]; cited from earlier work.
In a further series the test system is rats' lungs. Conditions: copper repletion after copper-deficient diet, ref. [15]; cited from earlier work.
The mark [4] stands for this setting: fibroblasts grown 21 days, copper sulfate added +0.5 to +32*initial copper concentration in medium.
[5] abbreviates: intratracheal on day 1, 8, 15, 22 and 29, day 35, compared to placebo.

Read-outs that look alike come from different tables or passages of the source.

Regarding `O=S(=O)([O-])[O-].[Mg+2]` [magnesium sulfate], in series [1], the DES accumulation result is “additional stimulating effect”, the ELN gene expression entry is reported as “no stimulating effect”, the LOX gene expression result is given as “no stimulating effect” and the LOXL1 gene expression entry is on record as “no stimulating effect”. Further, in series [1], the tropo-elastin levels entry is recorded as “no stimulating effect” and the accumulation of collagen result was “no additional stimulating effect”.

heparin: the “effect on systemic coagulation” value in series [2] (mouse, in vivo) is given as “did not have any effect”.

`O=S(=O)([O-])[O-].[Cu+2]` [copper sulfate]: in series [3] (added on top of the baseline copper (+)), the “copper concentration at which the dose response curve with regard to DES levels topped off” value was ~8 *initial copper concentration in the fibroblast medium. For the same molecule, in series [3] (setting [4]), the DES levels entry is on record as “increased”, the ELN gene expression entry is listed as “did not have any effect”, the LOX activity result is “increased” and the LOX gene expression result is given as “increased”. In series [3] (setting [4]), the LOXL1 gene expression entry was “increased”. Besides, in series [2] (conclusion of the mouse study), the “accumulation of collagen in the lungs” value is “induced accumulation and maturation of collagen fibers”; the “elastin repair process / repair of damaged elastin fibers” value is reported as “very effectively stimulated”. In series [2] (setting [5]), the “DES levels in lung tissue” value is on record as “higher”, the Mean linear intercept result was “lower” and the “hydroxyproline levels in lung” value is reported as “elevated”. Further, the “hyperinflation in the lung function tests (total lung capacity)” value in series [2] (intratracheal on day 1, 8, 15, 22 and 29, measured day 35, compared to placebo) is listed as “More hyperinflation was present in the lung function tests of mice from the placebo group”.

On to `CC(C)=CCC/C(C)=C/CC/C(C)=C/CC/C(C)=C/CC1=C(C)C(=O)c2ccccc2C1=O` [vitamin K2], for which, in series [1], the DES accumulation result was “additional stimulating effect”, the ELN gene expression result is recorded as “no stimulating effect”, the LOX gene expression result is “no stimulating effect” and the LOXL1 gene expression entry is on record as “no stimulating effect”. In addition, in series [1], the insoluble elastin levels entry is listed as “additional stimulating effect”, the tropo-elastin levels result is reported as “no stimulating effect” and the accumulation of collagen result is “no additional stimulating effect”.

For `[Cu]` [copper], the “effect on cerebral copper concentrations” value in series [2] (intratracheally administered, mice) is “no effect”. Also, the “deposition of protease-resistant elastin fibers” value in the series with copper-deficient chicks is recorded as “near normal values”. Also, in the series on rats' lungs, the “ultrastructure of pulmonary elastin” value is listed as “restored the ultrastructure of pulmonary elastin to near normal”.

On to `CC1=C(C/C=C(\C)CCC[C@H](C)CCC[C@H](C)CCCC(C)C)C(=O)c2ccccc2C1=O` [vitamin K1], for which, in series [1], the DES accumulation entry is “additional stimulating effect”, the ELN gene expression entry is “no stimulating effect”, the LOX gene expression entry is given as “no stimulating effect” and the LOXL1 gene expression result is “no stimulating effect”. In addition, in series [1], the insoluble elastin levels entry is listed as “additional stimulating effect”, the tropo-elastin levels entry is on record as “no stimulating effect” and the accumulation of collagen entry is recorded as “no additional stimulating effect”.

Values taken from patent US20210060060A1, “COMPOSITIONS AND METHODS FOR THE TREATMENT OF LUNG EMPHYSEMA AND OTHER FORMS OF COPD” (Emphysema Solutions BV, priority 2018, published 2021).
